Experimental data from patent US11421010B2, “T cells expressing membrane-anchored IL-12 for the treatment of cancer” (Board of Regents, The University of Texas System, priority 2016, dated 2022).

Legend:
STAT3 [1] = assay: Immunoblot of pSTAT3 with pharmacologic inhibitors, human CD8^+ T cells; type: cell-based; conditions: PP2 (1 nM); 1 h
Description: (§1) FIG. 23: Elevated STAT3 phosphorylation resulting from CD80 binding-mediated CD28 activation via the tyrosine kinase Lck/JAK/STAT3 signaling pathway. The effect of CD28 activation and treatment with pharmacologic inhibitors on the expression of pSTAT, total STAT, and b-actin according to immunoblot assay. Mouse and human CD8^+ T cells were stimulated with anti-CD3 microbeads and treated with ctrl Fc or CD80-Fc in the presence or absence of the pharmacologic inhibitor JSI-124 […], PP2 (1 nM), or AG-490 ([…]) for 24 h. Vehicle control is included. The intensity quantification shown ([…]/intensity of β-actin) represents the mean intensity from three repeated experiments.
(§2) Because NKG2D expression on NK cells is regulated by pSTAT3, the next question was whether pSTAT3 expression is induced in CD8^+ T cells by activation of CD28. To address this question, the pSTAT3 expression was measured in both mouse and human CD8^+ T cells after incubation with control IgG or CD80-Fc for 15 and 30 min, as well as 1 and 2 h via intracellular flow cytometric staining. […] Given that CD28 activation in CD8^+ T cells results in STAT3 phosphorylation, it was sought to determine how CD28 activates JAK/STAT3 signaling in CD8^+ T cells. In these cells, the co-stimulatory receptor CD28 strengthens TCR signaling via sustained activation of the tyrosine kinase Lck which in turn recruits and activates ZAP70. […] Thus a pharmacologic model was established to determine whether Lck/ZAP70, as an upstream kinase cascade, activates STAT3 in CD8^+ T cells. Mouse and human CD8^+ T cells were enriched (FIG. 29) and stimulated with anti-CD3 microbeads and incubated with control IgG or CD80-Fc in the presence or absence of the pharmacologic inhibitor PP2, AG-490, or JSI-124 for 1 h. PP2 was employed because it is a specific Src-family kinase inhibitor sensitive to blockade of Lck activation. Also, AG-490 can inhibit activation of JAK/STAT3 signaling. […] To validate the crucial role of pSTAT3, the expression of pSTAT1 and pSTAT5 was also assessed. […]

Lck/JAK/STAT3 signaling [2] = assay: NKG2D expression with CD80-Fc plus inhibitors of STAT3 activation, human CD8^+ T cells; type: cell-based; conditions: 24 h
Description: (§3) FIGS. 24A-24B: Blockade of Lck/JAK/STAT3 signaling abolishes CD28 activation-mediated induction of NKG2D expression on mouse and human CD8^+ T cells. (A, B) Mouse (A) and human (B) CD8^+ T cells were stimulated with anti-CD3 microbeads and treated with control Fc or CD80-FC in the presence or absence of the pharmacologic inhibitor JSI-124, PP2, or AG-490 for 24 h. The CD80+ vehicle has the highest expression of NKG2D. NKG2D expression on the surface of CD8^+ T cells was measured using flow cytometry. The bar graphs show the median (±SEM) MFI of NKG2D (n=3). The data are representative of three repeated experiments.
(§4) If NKG2D expression is induced by CD80-Fc-based treatment via pSTAT3, inhibition of any upstream activators of STAT3 should abrogate NKG2D induction. A time course study was performed to assess the toxicity of the pharmacologic inhibitors to mouse and human CD8^+ T cells. […] Therefore, to test the hypothesis, mouse and human CD8^+ T cells were enriched and treated with control Fc, CD80-Fc plus control vehicle, or CD80-Fc plus inhibitors of STAT3 activation, including PP2, AG490, and JSI-124, for 24 h.

STAT3 [3] = assay: Immunoblot of pSTAT3 with pharmacologic inhibitors, mouse CD8^+ T cells; type: cell-based; conditions: PP2 (1 nM); 1 h
Description: as §1, §2

Lck/JAK/STAT3 signaling [4] = assay: NKG2D expression with CD80-Fc plus inhibitors of STAT3 activation, mouse CD8^+ T cells; type: cell-based; conditions: 24 h
Description: as §3, §4

LLC cells = assay: Cytotoxic T-lymphocyte assay against CFSE-labeled LLC cells; type: cell-based, mouse; conditions: E:T 5:1, 10:1, 25:1, 5 h
Description: FIGS. 25A-25D: Augmentation of CD8^+ T-cell antitumor cytolytic activity by treatment with CD80-Fc. (A-C) Induction of antitumor cytolytic activity by mouse CD8^+ T cells after exposure to Rae-1^+ LLC cells. Splenocytes were collected from LLC-bearing mice on day 14 after tumor-cell inoculation. CD8^+ T cells were isolated from splenocytes and treated with control Fc or CD80-Fc in the presence or absence of an anti-NKG2D antibody or JSI-124 for 24 h. (A) CD8^+ T cells were co-incubated with CFSE-labeled LLC cells at a ratio of 25:1 (E:T) for 5 h. The cell culture medium was subjected to ELISA analysis of perforin. The bar graphs show the median (±SEM) normalized concentration of perforin (n=3). (B) Flow cytometry analysis of NKG2D ligand Rae-1 expression on LLC tumor cells. (C) CD8^+ T cells were co-incubated with CFSE-labeled LLC cells at ratios of 5:1, 10:1, and 25:1 (E:T) for 5 h. […] Survival of the target cells was measured as the percentage of normalized target cells that remained after incubation with CD8^+ T cells. […]
Because increased perforin expression by immune cells often indicates enhanced antitumor cytolytic activity, the cytotoxic T-lymphocyte activity of mouse CD8^+ T cells was measured after CD80-Fc-based treatment. […] The survival of target cells was determined as the percentage of normalized target cells that remained after incubation with CD8^+ T cells. […]

[5] = Degranulation assay (CD107a), human CD8^+ T cells exposed to K562 cells; type: cell-based; conditions: 24 h treatment
Description: (§5) FIGS. 25A-25D: Augmentation of CD8^+ T-cell antitumor cytolytic activity by treatment with CD80-Fc. (A-C) Induction of antitumor cytolytic activity by mouse CD8^+ T cells after exposure to Rae-1^+ LLC cells. Splenocytes were collected from LLC-bearing mice on day 14 after tumor-cell inoculation. CD8^+ T cells were isolated from splenocytes and treated with control Fc or CD80-Fc in the presence or absence of an anti-NKG2D antibody or JSI-124 for 24 h. (A) CD8^+ T cells were co-incubated with CFSE-labeled LLC cells at a ratio of 25:1 (E:T) for 5 h. The cell culture medium was subjected to ELISA analysis of perforin. The bar graphs show the median (±SEM) normalized concentration of perforin (n=3). (B) Flow cytometry analysis of NKG2D ligand Rae-1 expression on LLC tumor cells. (C) CD8^+ T cells were co-incubated with CFSE-labeled LLC cells at ratios of 5:1, 10:1, and 25:1 (E:T) for 5 h. After incubation, the cells were stained with PI (1 mg/mL). […] Survival of the target cells was measured as the percentage of normalized target cells that remained after incubation with CD8^+ T cells. […]
(§6) In a similar manner, the cytolytic activity of human CD8^+ T cells was assessed in terms of their degranulation upon CD28 activation. The ability of CD8^+ T cells to undergo degranulation was evaluated in response to exposure to target tumor cells by the induction of cell surface marker CD107a. […]

K562 cells = assay: as above; type: cell-based; conditions: after exposure to target cells, ratio 1:1, 4 h
Description: as §5, §6

human CD8^+ T cells = assay: CD8^+ T cell viability after JSI-124 (7-AAD), human; type: cell-based; conditions: 48 h, JSI-124 0.1 μM, versus vehicle control
Description: (§7) FIGS. 30A-30B: CD8^+ T cell viability after JSI-124 treatment. Freshly enriched mouse (A) and human (B) CD8^+ T cells were treated with vehicle control or JSI-124 (0.1 μM) for 1, 2, 3, and 4 days. Cell viability was assessed after 7-AAD staining via flow cytometry.
as §4

mouse CD8^+ T cells = assay: CD8^+ T cell viability after JSI-124 (7-AAD), mouse; type: cell-based; conditions: 48 h, JSI-124 0.1 μM, versus vehicle control
Description: as §7, §4

Row | SMILES | phosphorylation of STAT3 in response to CD80-Fc (STAT3 [1]) | NKG2D expression on CD8^+ T cells (Lck/JAK/STAT3 signaling [2]) | phosphorylation of STAT3 in response to CD80-Fc (STAT3 [3]) | NKG2D expression on CD8^+ T cells (Lck/JAK/STAT3 signaling [4]) | cytolytic activity against LLC cells (LLC cells) | NKG2D expression [5] | degranulation (CD107a) (K562 cells) | cell viability (human CD8^+ T cells) | cell viability (mouse CD8^+ T cells)
1 | N#C/C(=C/c1ccc(O)c(O)c1)C(=O)NCc1ccccc1 [AG-490] | completed abolished | dramatic decreases | completed abolished | dramatic decreases |  |  |  |  | 
2 | CC(C)(O)/C=C/C(=O)[C@](C)(O)[C@H]1[C@H](O)C[C@@]2(C)[C@@H]3CC=C4[C@@H](C=C(O)C(=O)C4(C)C)[C@]3(C)C(=O)C[C@]12C [JSI-124] | completed abolished | dramatic decreases | completed abolished | dramatic decreases | impaired the cytolytic activity | abolished NKG2D expression | reduced degranulation | markedly decreased | markedly decreased
3 | CC(C)(C)n1nc(-c2ccc(Cl)cc2)c2c(N)ncnc21 [PP2] | completed abolished | dramatic decreases | completed abolished | dramatic decreases |  |  |  |  | 
